In patent US20130109049A1, “Method of Establishing a Fungal Nail Infection” (NOVABIOTICS LIMITED, priority 2009, published 2013):

How the values were obtained:
[1] = test system: Trichophyton rubrum strain NCPF0118; test: Ex vivo human nail fragment model, treatment of established infection (cfu recovered); assay type: cell-based
Method: For antifungal efficacy studies with human toe nails, a solution of 50% (w/v) PEG 8000 (Sigma-Aldrich; Cat No P2139) was prepared by autoclaving and then diluting with sterile 50% (w/v) urea solution (Sigma-Aldrich; Cat No 51457). This solution was mixed thoroughly by vortexing and allowed to stabilise at 50° C. for up to 2 h. After stabilisation, the temperature was allowed to drop to below 40° C. and a concentrated, filter-sterilised solution of Novexatin® (NP213), dissolved in deionised water was added. Final concentrations of PEG 8000 of 50% (w/v), urea of 0-20% (w/v) and Novexatin® (NP213) of 0-10% (w/v) were used in the experiments described below.
On arrival, the cultures were transferred to a Petri dish containing sterile Sabouraud Dextrose agar (Sigma-Aldrich; Cat No 84088, or equivalent) and grown for up to 7 d at 30° C. The resulting growth was scraped off and re-suspended in Sabouraud's liquid medium (Oxoid; Cat No CM 147, or equivalent) containing […] dimethyl sulfoxide (DMSO) as cryoprotectant to create a culture stock. The fungus was stored in 0.5 ml aliquots in 2 ml screw-capped polypropylene vials (Cryovials) at −80° C. Seven days prior to experimental use, 50 μl of the culture stock was used to inoculate a slope of Potato Dextrose agar (Merck; Cat No VM556130 609, or equivalent), which was incubated at 30° C. for up to 7 d. The surface of the resulting growth was gently perturbed in 3 ml of sterile distilled/deionised water. After filtration through 2 layers of sterile surgical gauze to remove debris and larger clumps of biomass, the absorbance of the resultant spore suspension was measured at 530 nm, then adjusted to the 0.5 MacFarland standard (OD approx. 0.15)^2.
Human toe nails were obtained from a podiatrist in Aberdeen following a successful application to the Grampian Local Research Ethics Committee. […] Large toe nails were cut into 4 pieces, each approximately 1 cm^2 in area, using nail clippers. Nails of normal thickness (≦2 mm) were chosen. The 4 fragments cut from each single nail were placed in quadrants marked on Petri-dishes containing phosphate buffered saline rendered solid with 1.2% (w/v) Technical Agar No. 3 (Oxoid; Cat No LP0013, or equivalent), subsequently referred to as PBS agar. The nail fragments were of irregular shape, so to ensure that each nail received the appropriate amount of the treatment solutions, the surface area was measured by photographing the nails over graph paper and determining the number of 1mm^2 squares covered by each nail. The thickness of the nails was measured with a micrometer and nails distributed among treatment groups, to avoid nail thickness providing an additional experimental variable.
Twenty four nail fragments from 6 whole large toenails were each inoculated with 10 μl of a spore suspension of T. rubrum NCPF0118 which was prepared as described above. The inoculum was applied to the ventral side of the nail (i.e. the side next to the skin in situ). The nails were incubated for 7 d at 30° C. to allow the fungus to infect the nail tissue. After this pre-incubation period, 12 of the fragments were assigned to each of 2 different treatment protocols, involving daily treatment with 2 different vehicle solutions, each containing a control and 3 different concentrations of Novexatin® (NP213). These vehicle solutions were: 50% (w/v) PEG 8000, and 50% (w/v) PEG 8000 plus 20% (w/v) urea. The concentrations of Novexatin® (NP213) studied were 0%, 1%, 5% and 10% (w/v). The solutions were applied at a volume of 10 μl/cm^2, corrected for the surface area of the different nail fragments as described above. The applied solution was spread over the dorsal side of the nail, to mimic the intended clinical treatment and the ventral side of the nail rested on the agar surface. Each time the nails were treated, they were transferred to a new sterile Petri dish containing PBS agar to minimise any build-up of fungal growth on the agar. Nail fragments were treated daily for 28 days. […]

T. rubrum NCPF0118 = test: In vitro MIC100 testing; assay type: cell-based, Trichophyton rubrum; details: versus T. rubrum NCPF0118; revealed in separate tests
[2] = Experiment 1, 5% (w/v), absence of urea, daily 28 days

Substance: 7 to 200-mer (SEQ ID NO: 3) polyarginine [Novexatin® (NP213)]
- killing of T. rubrum NCPF0118 on nail fragments (dose dependence) ([1]; Experiment 1, 0%, 1%, 5%, 10% (w/v) in 50% PEG 8000 with or without 20% urea, daily for 28 days): dose-dependent
- reduction in fungal survival ([1]; Experiment 1, 1% (w/v), daily 28 days): approximately 1 log10
- fungi isolated with 20% (w/v) urea added to the vehicle, versus vehicle alone ([1]; Experiment 1, 1% (w/v), not statistically significant): fewer fungi than in vehicle alone
- fungal colonies isolated from nail fragments ([1]; Experiment 1, 5% (w/v) with 20% (w/v) urea in vehicle, daily 28 days): no colonies were isolated
- decrease in survival of the fungus compared to controls [1, 2]: approximately 3 log10
- fungal colonies isolated from nail fragments [1, 2]: a small number of colonies were detected
- recoverable fungal growth after treatment ([1]; Experiment 5, 10% (w/v), approximately 100×MIC100, 14 d or 28 d, daily): no recoverable fungal growth
- concentration equal to 100× the MIC100 (T. rubrum NCPF0118): ~10 % (w/v)
